{"source": "patent US20190282590A1", "about": "“MEDICAMENT FOR TREATMENT AND/OR PROPHYLACTIC TREATMENT OF BREAST CANCER” (HAKMED AB, priority 2016, published 2019)", "key": {"[1]": {"assay_type": "in vivo", "excerpt": "Since July 2005 369 cases of MBC were identified from the Swedish Cancer Register and each case was matched to five controls (n=[…]) from the general population of the same age and domicile. Medicines with documented side effects of hormonal imbalance or gynecomastia were collected from the Prescribed Drug Register in operation since July 2005. Drug exposure was followed both for cases and controls until the cancer diagnosis or death of the case. Cases and controls with a diagnosis of prostate cancer were excluded. The data were mainly analyzed with conditional logistic regression and Cox regression.\nCox regression and nested case-control analysis were used in analysis of the ever-use variable of any of the included medicines, after the exclusion phases (described below), as well as after the grouping phase and generated study design-specific hazard ratios (HR) and 95% confidence intervals (CI). P-values less than 0.05 were considered statistically significant. All processing of the data and statistical analysis was made using R programming for statistical computing and ended with the effectuation of conditional logistic regression, Cox regression and nested case-control. Using multiple statistical methods provided additional statistical certainty.\nIn this second line of statistical analysis, the match sets created by Statistics Sweden were kept, using the ID number of the case to connect the five matched controls to each case. All medical use after the time of diagnosis of the case was excluded, which applied also to the controls, meaning that the matched control's medical usage after the date of diagnosis of the case was censored using the predefined match sets. All subjects were classified as non-users until the date of the first prescription of one of the included medicines. […]\nThe first prescribed medicine for each individual with recorded medical use was selected, since this was likely to be the medicine each individual had used for the longest period of time. […]"}, "[2]": {"conditions": "except in skeletal muscle tissue; cited from earlier work"}, "[3]": {"conditions": "prevention mainly limited to less severe prostate cancer; cited from earlier work"}, "[4]": {"conditions": "cited from earlier work"}}, "data": [{"smiles": "COc1cc2nc(N(C)CCCNC(=O)C3CCCO3)nc(N)c2cc1OC", "note": "(stereo not shown) [Alfuzosin]", "values": [{"measurement": "Association of medication use with risk of MBC (in words)", "setting": "[1]", "value": "significant correlation to increased risk of MBC"}]}, {"smiles": "C[C@]12CCC(=O)C[C@@H]1CC[C@@H]1[C@@H]2CC[C@]2(C)[C@@H](O)CC[C@@H]12", "note": "[DHT, dihydrotestosterone]", "values": [{"measurement": "Potency relative to testosterone or other androgens", "setting": "[2]", "value": "3-5 times"}]}, {"smiles": "COc1cc2nc(N3CCN(C(=O)C4CCCO4)CC3)nc(N)c2cc1OC", "note": "(stereo not shown) [Terazosin]", "values": [{"measurement": "Association of medication use with risk of MBC (in words)", "setting": "[1]", "value": "significant correlation to increased risk of MBC"}]}, {"smiles": "C[C@]12C=CC(=O)N[C@@H]1CC[C@@H]1[C@@H]2CC[C@]2(C)[C@@H](C(=O)Nc3cc(C(F)(F)F)ccc3C(F)(F)F)CC[C@@H]12", "note": "[dutasteride, (5α,17β)-N-{2,5-Bis(trifluoromethyl)phenyl}-3-oxo-4-azaandrost-1-ene-17-carboxamide]", "values": [{"measurement": "Effect on prostate cancer (in words)", "setting": "[3]", "value": "a better prognosis has been shown"}, {"measurement": "Adverse effects in clinical studies", "setting": "[4]; 5 mg daily for 6 months, patients, compared with therapeutic dose 0.5 mg", "value": "no additional adverse effects"}, {"measurement": "Safety of single daily doses", "setting": "[4]; up to 40 mg/day (80 times the therapeutic dose) for 7 days, healthy volunteers", "value": "without significant safety concerns"}, {"measurement": "Preventive effect on MBC (in words)", "setting": "[1]; register study, 5-ARI users", "value": "preventive effect was strongest"}]}]}
